{IBFQ} = Iowa Black FQ quencher

Here are results for eight compounds from patent publication US20250205362A1, “LIPID NANOPARTICLES” (NATIONAL UNIVERSITY CORPORATION HOKKAIDO UNIVERSITY, priority 2022, published 2025).

Data set [1] in a line: Encapsulation rate of lipid nanoparticles (Ribogreen). The data set is classed as physicochemical. Here is the method:
The encapsulation rate of the lipid nanoparticles was calculated by measuring the amount of encapsulated nucleic acid (the amount of ssODN in the case of RNP-ssODN) using an RNA intercalator Ribogreen (manufactured by Life Technologies).

Data set [2] in a line: Metabolic evaluation: lipid amount in the liver (LC/MS). The data set is classed as in vivo, mouse. Particulars: FIG. 4; Fluc mRNA-loaded LNP iv 0.5 mg mRNA/kg, BALB/c mice; 0.5, 4, 24 hours. Here is the method:
For liquid chromatography-mass spectrometry (LC/MS) for lipid quantification, liver samples stored at −80° C. prior to analysis were used. Mice were intravenously injected with lipid nanoparticles (0.5 mg RNA/kg body weight) and then liver tissue was harvested.
The tissue was homogenized in 200 μL of water, and the resulting tissue homogenate (50 μL) was subjected to an extraction with 400 μL of acetonitrile/isopropanol (50:50 (v/v)). The extract was centrifuged (4000 rpm, 10 min), the supernatant was filtered, and the filtrate was diluted 50-fold with water/acetonitrile/isopropanol (1:8:8 (v/v)) and transferred to a vial for LC/MS analysis using an Accucore. LC/MS was performed under the following conditions. The parent lipids and their predicted metabolites were detected under optimized conditions. Each lipid molecule was monitored using the following masses: [M+H]^+->916 (CL4H6), 864 (CL4F6), 982 (CL4F10-b-7), 752 (CL4F10-e-2). […]
Specifically, lipid nanoparticles encapsulating Fluc mRNA (Fluc mRNA-loaded lipid nanoparticles) were intravenously injected into BALB/c mice (female, 4 weeks old) at a dose of 0.5 mg mRNA/kg body weight. The mice were euthanized 0.5 hours, 4 hours, or 24 hours after the intravenous injection, and the amount of lipid derived from each lipid nanoparticle in the liver was measured.

Data set [3] is described as follows: Average particle diameter, PdI and zeta potential of lipid nanoparticles (dynamic light scattering). The data set is classed as physicochemical. As to the method: The mean particle diameter (number average value), ζ-mean particle diameter, and polydispersity index (PdI) of the lipid nanoparticles in PBS(−) (pH 7.4), as well as the zeta potential in 10 mM HEPES buffer (pH 7.4), were measured using an analyzing device, Zetasizer Nano ZS ZEN3600 (Malvern), which utilizes dynamic light scattering.

For the next data set, the system named is factor 7 (F7). To be noted: knockdown of factor 7 (F7) in mouse liver; cited from earlier work.
A further data set deals with sgTTR-G211-5FAM. Description: Tm value between sgRNA and ssODN by fluorescence quenching method. It is filed as physicochemical. Particulars: with sgTTR-G211-5FAM in Cas9 RNP; FIG. 21(B); n=3. Here is the method: To measure the Tm value between sgRNA and ssODN in the RNP complex using the fluorescence quenching method, a FAM-modified sgRNA whose 5′ end was modified with the fluorescent substance FAM and a 20-base-long IBFQ-modified ssODN whose 3′ end was modified with the quenching substance IBFQ were used.
Specifically, IBFQ-modified ssODN (5 equivalents relative to RNP) was added to Cas9 RNP containing FAM-modified sgRNA (final RNP concentration: 2.5 μM) to form an RNP-ssODN complex. The resulting solution (10 μL) was incubated at 10° C., after which the temperature was increased by 1° C. at 10 second intervals. The fluorescence intensity was measured at each temperature from 11 to 70° C. using a thermal cycler (“Dice® Real Time System III”, TaKaRa Bio Inc.). The temperature at which the fluorescence intensity was maximized was taken as the measured Tm value (° C.).

The subject of the next data set is TTR gene. In words: Measurement of TTR-KO activity (serum TTR protein, ELISA). The data set is classed as in vivo, mouse. Particulars: FIG. 5; TTR-RNP-ssODN-loaded LNP; mouse serum 7 days after administration. In short, it runs like this:
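Female BALB/c mice (4 weeks) received Cas9/sgTTR-RNP-loaded lipid nanoparticles i.v. at the indicated doses. Serum TTR protein measured by ELISA one week later. TTR-KO activity expressed as serum TTR (%) relative to untreated mice set at 100%.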

Another data set deals with BALB/c mice. Description: Measurement of Fluc activity in tissues after iv Fluc mRNA-loaded lipid nanoparticles. Particulars: Example 1, FIG. 1; Fluc mRNA-loaded LNP 50/10/40/1.5; Balb/c mice iv 0.01 mg mRNA/kg, 6 hours. The data set is classed as in vivo, mouse. Here is the method:
First, lipid nanoparticles encapsulating Fluc mRNA (Fluc mRNA-loaded lipid nanoparticles) were intravenously injected into BALB/c mice (female, 4 weeks old) at a dose of 0.01 mg mRNA/kg body weight. Six hours after intravenous injection, the mice were euthanized, and each tissue was collected, frozen in liquid nitrogen, and stored at −80° C. The tissues were homogenized in passive lysis buffer (Promega) using a bead cell disrupter (Micro Smash MS-100R, TOMY Seiko). Tissue debris was removed by centrifugation and the supernatant was collected. Fluc activity in the supernatant was measured using a luciferase assay system (E1500, Promega) according to the manufacturer's protocol. Luminescence was measured using a luminometer (Luminescencer-PSN, ATTO). The protein concentration was determined using a commercially available measurement kit (BCA Protein Assay Kit, Pierce). Fluc activity was expressed as relative light units (RLU) per mg of protein.

Where [4] appears, read: TTR-RNP-ssODN-loaded LNP (ssODN-TTR_3-40%), cationic lipid/DSPC/cholesterol/PEG-DMG 50/10/40/3.5 mol%, Table 8.
Where [5] appears, read: Fluc mRNA-loaded LNP, comparison CL4F11-ζ-2, SM, ALC, MC3, Table 21.
The mark [6] stands for this setting: Fluc mRNA-loaded LNP, lipid/DSPC/cholesterol/PEG-DMG 50/10/40/1.5 (MC3: 50/10/38.5/1.5) mol%, Table 15.
[7] abbreviates: TTR-RNP-ssODN-loaded LNP, comparison CL4F11-ζ-2, SM, ALC, MC3, Table 20.
Where [8] appears, read: Fluc mRNA-loaded LNP, cationic lipid/DSPC/cholesterol/PEG-DMG 50/10/40/1.5 mol%, Table 5.

In data set [1] (setting [4]), `CCCCCCCC/C=C\CCCCCCCC(=O)OCCCCCCC(O)(CCCCCCOC(=O)CCCCCCC/C=C\CCCCCCCC)CCCCN(C(C)C)C(C)C` [CL4H6, 7-(4-(diisopropylamino)butyl)-7-hydroxytridecane-1,13-diyl dioleate, reference compound] registered an Encapsulation rate of 83.5%. Besides, the “amount of lipid in the liver (metabolism)” value in data set [2] is listed as “almost completely disappeared from the liver 24 hours after administration”. Further, in data set [3] (setting [4]), the Number-average particle diameter is on record as 80.1 nm, the PdI amounted to 0.254, the ζ-average worked out at 136.5 nm and the ζ-potential is given as 2.83 mV.
As to `CCCCC/C=C\C/C=C\CCCCCCCCOC1(OCCCCCCCC/C=C\C/C=C\CCCCC)CCN(C)CC1` [YSK05], the “ED50 in F7 knockdown” value in the data set on factor 7 (F7) is listed as 0.06 mg siRNA/kg.
Consider `CCCCC/C=C\C/C=C\CCCCCCCCC(CCCCCCCC/C=C\C/C=C\CCCCC)OC(=O)CCCN(C)C` [MC3, DLin-MC3-DMA, reference compound], for which the Encapsulation rate in data set [1] (setting [5]) came out at 87.1%; in data set [1] (setting [6]), 79.3%; in data set [1] (setting [7]), 78.7%. Also, in the data set with factor 7 (F7), the “ED50 in F7 knockdown” value is recorded as 0.005 mg siRNA/kg. Moreover, the Number-average particle diameter amounted to 71.0 nm in data set [3] (setting [5]), 48.0 nm in data set [3] (setting [6]) and 82.7 nm in data set [3] (setting [7]). Further, the PdI in data set [3] (setting [5]) was 0.190; in data set [3] (setting [6]) it was 0.198; in data set [3] (setting [7]), 0.213. For the same compound, the ζ-average in data set [3] (setting [5]) is recorded as 112.4 nm; in data set [3] (setting [6]), 68.6 nm; in data set [3] (setting [7]) it was 155.9 nm. The ζ-potential in data set [3] (setting [5]) is −2.17 mV; in data set [3] (setting [6]) it was 2.19 mV; in data set [3] (setting [7]), 0.52 mV.
For “ssODN-40%-3IBFQ: IBFQ bound to the 3′ end of ssODN-40% (SEQ ID NO 23), 40% matched with the ssON-paired region (DNA AAAAAAAGACGTGGAAAATT; 3' {IBFQ}, sugars by position and backbone not given here)”, the “Tm value (fluorescence quenching)” value in the data set with sgTTR-G211-5FAM is 32 °C.
Regarding `CCCCCC/C=C\COC(=O)CCCCCCCC(CCCCCCCC(=O)OC/C=C\CCCCCC)OC(=O)CCCN(C)C` [L319], in the data set on factor 7 (F7), the “ED50 in F7 knockdown” value is 0.01 mg siRNA/kg.
As for “ssODN-80%-3IBFQ: IBFQ bound to the 3′ end of ssODN-80% (SEQ ID NO 22), 80% matched with the ssON-paired region (DNA AACTGTAGACGTGGCTGTTT; 3' {IBFQ}, sugars by position and backbone not given here)”, the “Tm value (fluorescence quenching)” value in the data set with sgTTR-G211-5FAM turned out to be 62 °C.
In data set [1] (setting [8]), “7-(4-(dipropylamino)butyl)-7-hydroxytridecane-1,13-diylbis(3-heptyldecanoate) [CL4F10-b-7]” came in with an Encapsulation rate of 94.6%. This compound gave an Encapsulation rate in data set [1] (setting [4]) of 86.0%. Besides, the “serum TTR activity / gene knockout versus CL4F6” value in the data set with TTR gene was “lower serum TTR activity and higher gene knockout”. The “Fluc activity (gene transfer ability) in liver and spleen” value in the data set on BALB/c mice was “equal to or greater than that of CL4F6”. In data set [3] (setting [8]), this compound came in with a Number-average particle diameter of 35.3 nm, a PdI of 0.196, a ζ-average of 65.3 nm and a ζ-potential of −3.30 mV. In data set [3] (setting [4]), this compound returned a Number-average particle diameter of 82.5 nm, a PdI of 0.104, a ζ-average of 127.1 nm and a ζ-potential of −0.48 mV.
For `CCCCC(CC)CCCCC(=O)OCCCCCCC(O)(CCCCCCOC(=O)CCCCC(CC)CCCC)CCCCN(CCC)CCC` (stereo not drawn) [CL4F10-e-2, 7-(4-(dipropylamino)butyl)-7-hydroxytridecane-1,13-diylbis(6-ethyldecanoate)], the “amount of lipid in the liver (metabolism)” value in data set [2] was “most of it was degraded within 24 hours after administration”.
